Assay results from patent US20130317037A1, “METHOD OF ADMINISTRATION AND TREATMENT” (GlaxoSmithKline Intellectual Property Development Limited, priority 2010, published 2013).
Read-outs that look alike come from different tables or passages of the source.

Legend:
Assay type in all cases: cell-based
184A1 = assay: in vitro
Description: (§1) From the stock concentration, 8 serial dilutions (1:5) were made with DMSO.
(§2) Day −1: Plate cells in 100 μl volume in 96 well plate. • Note: Cell number seeded adjusted for growth characteristics, so that at time of assay for proliferation following three-day drug treatment, the control wells should still be in log-growth phase (sub-confluent). Day 0: Drug added to plate for treatment. • A time 0 plate was processed for the proliferation assay to establish a baseline reading at time when drug was added.
(§3) LBNL are following the protocols set up by the NCI/NIH DTP Human Tumor Cell Line Screen Process (http://dtp.nci.nih.gov/branches/btb/ivclsp.html) and summarized below.
(§4) [(Ti−Tz)/(C−Tz)]×100 for concentrations for which Ti>/=Tz
(§5) [(Ti−Tz)/(C−Tz)]×100=50, • which is the drug concentration resulting in a 50% reduction in the net growth in control cells during the drug incubation. TGI: Total growth inhibition is calculated from
(§6) Ti=Tz. • The drug concentration resulting in total growth inhibition (down to the ‘time 0’ baseline). LC50: Net loss of cell growth at 50% is calculated from
(§7) [(Ti−Tz)/Tz]×100=−50. • The concentration of drug resulting in a 50% reduction in the cell number at the end of the drug treatment as compared to that at the beginning (time 0) indicating a net loss of cells following treatment.
(§8) Values are calculated for each of these three parameters if the level of activity is reached; however, if the effect is not reached or is exceeded, the value for that parameter is expressed as greater or less than the maximum or minimum concentration tested.

SUM229PE = assay: cells
Description: as §1, §2, §3, §4, §5, §6, §7, §8

in vitro = conditions: human
Description: as §1, §2, §3, §4, §5, §6, §7, §8

UACC812 = assay: cells
Description: as §1, §2, §3, §4, §5, §6, §7, §8

MCF12A = assay: cells
Description: as §1, §2, §3, §4, §5, §6, §7, §8

HCC1428 = assay: cells
Description: as §1, §2, §3, §4, §5, §6, §7, §8

UACC893D = assay: cells
Description: as §1, §2, §3, §4, §5, §6, §7, §8

HCC1187 = assay: cells
Description: as §1, §2, §3, §4, §5, §6, §7, §8

MCF10A = assay: cells
Description: as §1, §2, §3, §4, §5, §6, §7, §8

MDAMB468D = assay: cells
Description: as §1, §2, §3, §4, §5, §6, §7, §8

BT474 = assay: cells
Description: as §1, §2, §3, §4, §5, §6, §7, §8

HCC38 = assay: cells
Description: as §1, §2, §3, §4, §5, §6, §7, §8

HCC70 = assay: cells
Description: as §1, §2, §3, §4, §5, §6, §7, §8

BT549 = assay: cells
Description: as §1, §2, §3, §4, §5, §6, §7, §8

MDAMB436L = assay: cells
Description: as §1, §2, §3, §4, §5, §6, §7, §8

MDAMB134 = assay: cells
Description: as §1, §2, §3, §4, §5, §6, §7, §8

SUM1315MO2 = assay: cells
Description: as §1, §2, §3, §4, §5, §6, §7, §8

T47D = assay: cells
Description: as §1, §2, §3, §4, §5, §6, §7, §8

MDAMB361 = assay: cells
Description: as §1, §2, §3, §4, §5, §6, §7, §8

Hs578T = assay: cells
Description: as §1, §2, §3, §4, §5, §6, §7, §8

LY2 = assay: cells
Description: as §1, §2, §3, §4, §5, §6, §7, §8

SUM225CWN = assay: cells
Description: as §1, §2, §3, §4, §5, §6, §7, §8

[1] = Homo sapiens, 50% net loss of cells vs time 0, read-out: LC50 (the source's name)
[2] = Homo sapiens, 72 h, three-day drug treatment, read-out: gIC50

COc1ncc(-c2ccc3nccc(-c4ccnnc4)c3c2)cc1NS(=O)(=O)c1ccc(F)cc1F [Compound B, 2,4-difluoro-N-{2-(methyloxy)-5-[4-(4-pyridazinyl)-6-quinolinyl]-3-pyridinyl}benzenesulfonamide] gave a TGI (184A1; 184A1, total growth inhibition) of 16.3 nM, an IC50 (184A1; Homo sapiens, 72 h, 184A1, three-day drug treatment, read-out: gIC50) of 1.6 nM and a CC50 (SUM229PE; [1]) of 126 nM. It also gave an IC50 (SUM229PE; [2]) of 2.5 nM, a TGI (SUM229PE; total growth inhibition) of 17.4 nM and a CC50 at 3 days (in vitro; 184A1 breast epithelium cells (HER2−, PIK3CA NA), 184A1, 50% net loss of cells vs time 0, read-out: LC50) of 26700 nM. The CC50 at 3 days (in vitro; 184B5 breast epithelium cells (HER2−, PIK3CA NA), 184B5, 50% net loss of cells vs time 0, read-out: LC50) was over 33000 nM, the CC50 at 3 days (in vitro; MCF10A cells (breast epithelium; HER2−; PIK3CA NA), 50% net loss of cells vs time 0, read-out: LC50) was 6700 nM and the CC50 at 3 days (in vitro; MCF10F cells (breast epithelium; HER2−; PIK3CA NA), 50% net loss of cells vs time 0, read-out: LC50) was 98.7 nM. The CC50 at 3 days (in vitro; MCF12A cells (breast epithelium; HER2−; PIK3CA wild type), 50% net loss of cells vs time 0, read-out: LC50) was 2760 nM, the IC50 (UACC812; Homo sapiens, UACC-812, 72 h, UACC812, three-day drug treatment, read-out: gIC50) was 4.9 nM and the TGI (UACC812; UACC812, total growth inhibition) was 24.0 nM. It also gave an IC50 (MCF12A; Homo sapiens, MCF-12A, 72 h, three-day drug treatment, read-out: gIC50) of 7.4 nM, a TGI (MCF12A; total growth inhibition) of 178.5 nM and a TGI (HCC1428; HCC1428, total growth inhibition) of 158.5 nM. For the same molecule, the IC50 (HCC1428; Homo sapiens, 72 h, HCC1428, three-day drug treatment, read-out: gIC50) was 16.2 nM, the CC50 (HCC1428; Homo sapiens, HCC1428, 50% net loss of cells vs time 0, read-out: LC50 (the source's name)) was 5250 nM and the IC50 (UACC893D; [2]) was 8.8 nM. The TGI (UACC893D; total growth inhibition) was 20.1 nM, the TGI (HCC1187; HCC1187, total growth inhibition) was 35.5 nM and the IC50 (HCC1187; Homo sapiens, 72 h, HCC1187, three-day drug treatment, read-out: gIC50) was 4.9 nM. The CC50 (HCC1187; Homo sapiens, HCC1187, 50% net loss of cells vs time 0, read-out: LC50 (the source's name)) was 118 nM, the IC50 (MCF10A; Homo sapiens, MCF-10A, 72 h, three-day drug treatment, read-out: gIC50) was 7.2 nM and the TGI (MCF10A; total growth inhibition) was 467.7 nM. For the same molecule, the CC50 (MDAMB468D; [1]) was 2240 nM, the IC50 (MDAMB468D; [2]) was 31.6 nM and the TGI (MDAMB468D; total growth inhibition) was 537.0 nM. For the same molecule, the TGI (BT474; BT474, total growth inhibition) was 20.1 nM, the IC50 (BT474; Homo sapiens, BT-474, 72 h, BT474, three-day drug treatment, read-out: gIC50) was 4.8 nM and the CC50 (BT474; Homo sapiens, BT-474, BT474, 50% net loss of cells vs time 0, read-out: LC50 (the source's name)) was 119 nM. The TGI (HCC38; HCC38, total growth inhibition) was 158.5 nM, the IC50 (HCC38; Homo sapiens, 72 h, HCC38, three-day drug treatment, read-out: gIC50) was 55 nM and the CC50 (HCC38; Homo sapiens, HCC38, 50% net loss of cells vs time 0, read-out: LC50 (the source's name)) was 355 nM. It also gave a TGI (HCC70; HCC70, total growth inhibition) of 26.8 nM, an IC50 (HCC70; Homo sapiens, 72 h, HCC70, three-day drug treatment, read-out: gIC50) of 4.9 nM and a CC50 (HCC70; Homo sapiens, HCC70, 50% net loss of cells vs time 0, read-out: LC50 (the source's name)) of 118 nM. For the same molecule, the TGI (BT549; BT549, total growth inhibition) was over 33000.0 nM, the IC50 (BT549; Homo sapiens, BT-549, 72 h, BT549, three-day drug treatment, read-out: gIC50) was 42.7 nM and the CC50 (BT549; Homo sapiens, BT-549, BT549, 50% net loss of cells vs time 0, read-out: LC50 (the source's name)) was over 33000 nM. For the same molecule, the CC50 (MDAMB436L; [1]) was over 33000 nM, the IC50 (MDAMB436L; [2]) was 13.2 nM and the TGI (MDAMB436L; total growth inhibition) was over 33000.0 nM. For the same molecule, the IC50 (MDAMB134; Homo sapiens, 72 h, MDAMB134, three-day drug treatment, read-out: gIC50) was 13.2 nM, the CC50 (MDAMB134; Homo sapiens, MDAMB134, 50% net loss of cells vs time 0, read-out: LC50 (the source's name)) was 224 nM and the TGI (MDAMB134; MDAMB134, total growth inhibition) was 60.3 nM. It also gave an IC50 (SUM1315MO2; Homo sapiens, 72 h, SUM1315MO2, three-day drug treatment, read-out: gIC50) of 10 nM, a CC50 (SUM1315MO2; Homo sapiens, SUM1315MO2, 50% net loss of cells vs time 0, read-out: LC50 (the source's name)) of 8880 nM and a TGI (SUM1315MO2; SUM1315MO2, total growth inhibition) of 158.3 nM. The CC50 (T47D; [1]) was 1000 nM, the IC50 (T47D; [2]) was 3.7 nM and the TGI (T47D; total growth inhibition) was 19.1 nM. It also gave an IC50 (MDAMB361; Homo sapiens, MDA-MB-361, 72 h, MDAMB361, three-day drug treatment, read-out: gIC50) of 1.7 nM, a CC50 (MDAMB361; Homo sapiens, MDA-MB-361, MDAMB361, 50% net loss of cells vs time 0, read-out: LC50 (the source's name)) of 26.9 nM and a TGI (MDAMB361; MDAMB361, total growth inhibition) of 4.9 nM. It also gave a CC50 (Hs578T; Homo sapiens, Hs-578T, 50% net loss of cells vs time 0, read-out: LC50 (the source's name)) of over 33000 nM, an IC50 (Hs578T; Homo sapiens, Hs-578T, 72 h, three-day drug treatment, read-out: gIC50) of 67.4 nM and a TGI (Hs578T; total growth inhibition) of 4556.2 nM. The IC50 (LY2; Homo sapiens, 72 h, LY2, three-day drug treatment, read-out: gIC50) was 11 nM, the TGI (LY2; LY2, total growth inhibition) was 30.2 nM and the CC50 (SUM225CWN; [1]) was 436 nM. For the same molecule, the IC50 (SUM225CWN; [2]) was 1.6 nM and the TGI (SUM225CWN; total growth inhibition) was 14.8 nM.
